Results from patent US20090093469A1, “Phenylaminopropanol Derivatives and Methods of Their Use” (WYETH, priority 2004, published 2009).
Counter-ions that a name gives are not always drawn.

These compounds were tested against T1, hNET (Homo sapiens, UniProt P23975) (assay: Norepinephrine (NE) uptake assay in MDCK-Net6 cells stably transfected with human hNET). Conditions: MDCK-Net6, read-out: % Inhibition @ 1 μM (hNET).
T1 construct: expressed in transfected cells
Assay type: cell-based
Procedure: Cells were plated at 300,000/T75 flask and cells were split twice weekly. […] Cells were plated at 250,000 cells/T75 flask and split twice weekly.
On day 1, cells were plated at 3,000 cells/well in growth medium and maintained in a cell incubator (37° C., 5% CO2). On day 2, growth medium was replaced with 200 μl of assay buffer (25 mM HEPES; 120 mM NaCl; 5 mM KCl; 2.5 mM CaCl2; 1.2 mM MgSO4; 2 mg/ml glucose (pH 7.4, 37° C.)) containing 0.2 mg/ml ascorbic acid and 10 μM pargyline. Plates containing cells with 200 μl of assay buffer were equilibrated for 10 minutes at 37° C. prior to addition of compounds. A stock solution of desipramine was prepared in DMSO (10 mM) and delivered to triplicate wells containing cells for a final test concentration of 1 μM. Data from these wells were used to define non-specific NE uptake (minimum NE uptake). Test compounds were prepared in DMSO (10 mM) and diluted in assay buffer according to test range (1 to 10,000 nM). Twenty-five microliters of assay buffer (maximum NE uptake) or test compound were added directly to triplicate wells containing cells in 200 μl of assay buffer. The cells in assay buffer with test compounds were incubated for 20 minutes at 37° C. To initiate the NE uptake, [^3H]NE diluted in assay buffer (120 nM final assay concentration) was delivered in 25 μl aliquots to each well and the plates were incubated for 5 minutes (37° C.). The reaction was terminated by decanting the supernatant from the plate. The plates containing cells were washed twice with 200 μl assay buffer (37° C.) to remove free radioligand. The plates were then inverted, left to dry for 2 minutes, then reinverted and air-dried for an additional 10 minutes. The cells were lysed in 25 μl of 0.25 N NaOH solution (4° C.), placed on a shake table and vigorously shaken for 5 minutes. After cell lysis, 75 μl of scintillation cocktail was added to each well and the plates were sealed with film tape. The plates were returned to the shake table and vigorously shaken for a minimum of 10 minutes to ensure adequate partitioning of organic and aqueous solutions. The plates were counted in a Wallac Microbeta counter (PerkinElmer) to collect the raw cpm data.
For each experiment, a data stream of cpm values collected from the Wallac Microbeta counter was downloaded to a Microsoft Excel statistical application program. Calculations of EC50 values were made using the transformed-both-sides logistic dose response program written by Wyeth Biometrics Department.

T1 sequence (P23975 whole entry): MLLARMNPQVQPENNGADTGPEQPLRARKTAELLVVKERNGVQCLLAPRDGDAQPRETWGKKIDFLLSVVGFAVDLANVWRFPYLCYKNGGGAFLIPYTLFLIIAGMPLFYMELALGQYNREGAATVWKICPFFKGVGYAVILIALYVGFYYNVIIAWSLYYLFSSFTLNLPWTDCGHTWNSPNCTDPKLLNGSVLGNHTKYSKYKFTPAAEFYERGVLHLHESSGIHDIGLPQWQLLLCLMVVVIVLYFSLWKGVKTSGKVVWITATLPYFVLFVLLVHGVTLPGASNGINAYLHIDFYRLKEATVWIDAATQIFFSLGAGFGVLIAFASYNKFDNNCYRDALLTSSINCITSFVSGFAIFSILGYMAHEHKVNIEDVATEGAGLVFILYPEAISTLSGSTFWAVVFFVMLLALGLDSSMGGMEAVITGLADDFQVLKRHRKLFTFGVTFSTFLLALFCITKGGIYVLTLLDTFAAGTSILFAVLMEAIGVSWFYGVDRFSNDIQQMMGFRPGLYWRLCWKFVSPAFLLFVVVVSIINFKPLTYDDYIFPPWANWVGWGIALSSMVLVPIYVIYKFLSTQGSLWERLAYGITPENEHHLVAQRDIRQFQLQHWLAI

Row | SMILES | inhibition at 1 µM
1 | CNC[C@@H](O)[C@H](c1ccccc1)n1ccc2cc(OC)ccc21 [Example 76, (1S,2R)-1-(5-methoxy-1H-indol-1-yl)-3-(methylamino)-1-phenylpropan-2-ol hydrochloride] | 75.2%
2 | CNC[C@@H](O)[C@H](c1cccc(F)c1)n1ccc2cc(F)ccc21 [Example 85, (1S,2R)-1-(5-fluoro-1H-indol-1-yl)-1-(3-fluorophenyl)-3-(methyl-amino)propan-2-ol hydrochloride] | 97.4%
3 | CNC[C@@H](O)[C@H](c1cccc(F)c1)n1ccc2cc(C)ccc21 [Example 92, ((1S,2R)-1-(3-fluorophenyl)-3-(methylamino)-1-(5-methyl-1H-indol-1-yl)propan-2-ol hydrochloride] | 85.8%
4 | CNC[C@@H](O)[C@H](c1cccc(F)c1)n1ccc2c(C)cccc21 [Example 96, ((1S,2R)-1-(3-fluorophenyl)-3-(methylamino)-1-(4-methyl-1H-indol-1-yl)propan-2-ol hydrochloride] | 98.2%
5 | CCc1cn([C@@H](c2cccc(F)c2)[C@H](O)CNC)c2ccccc12 [Example 97, ((1S,2R)-1-(3-fluorophenyl)-3-(methylamino)-1-(3-ethyl-1H-indol-1-yl)propan-2-ol hydrochloride] | 99.6%

Same assay, conditions: test compound 1 μM; [3H]NE uptake, MDCK-Net6 cells; read-out: % Inhibition @ 1 μM (hNET)

Row | SMILES | inhibition at 1 µM
6 | CNC[C@@H](O)[C@H](c1ccccc1)n1ccc2cccc(OC)c21 [Example 77, (1S,2R)-1-(7-methoxy-1H-indol-1-yl)-3-(methylamino)-1-phenylpropan-2-ol hydrochloride] | 77.3%
7 | CNC[C@@H](O)[C@H](c1ccccc1)n1ccc2c(OC)cccc21 [Example 78, (1S,2R)-1-(4-methoxy-1H-indol-1-yl)-3-(methylamino)-1-phenyl propan-2-ol hydrochloride] | 70.9%
8 | CNC[C@@H](O)[C@H](c1ccccc1)n1ccc2ccc(OC)cc21 [Example 79, (1S,2R)-1-(6-methoxy-1H-indol-1-yl)-3-(methylamino)-1-phenyl propan-2-ol hydrochloride] | 66%
9 | CNC[C@@H](O)[C@H](c1cccc(F)c1)n1ccc2ccc(OC)cc21 [Example 81, (1S,2R)-1-(3-fluorophenyl)-1-(6-methoxy-1H-indol-1-yl)-3-(methyl-amino)propan-2-ol hydrochloride] | 58%
10 | CNC[C@@H](O)[C@H](c1ccccc1)n1ccc2cccnc21 [Example 82, (1S,2R)-3-(methylamino)-1-phenyl-1-(1H-pyrrolo[2,3-b]pyridin-1-yl)propan-2-ol] | 53.9%
11 | CNC[C@@H](O)[C@H](c1ccccc1)n1ccc2ccncc21 [Example 84, (1S,2R)-3-methylamino-1-phenyl-1-(1H-pyrrolo[2,3-c]pyridin-1-yl) propan-2-ol dihydrochloride] | 40.9%
12 | CNC[C@@H](O)[C@H](c1cccc(F)c1)n1ccc2ccncc21 [Example 86, (1S,2R)-3-methylamino-1-(3-fluorophenyl)-1-(1H-pyrrolo[2,3-c]pyridin-1-yl) propan-2-ol dihydrochloride] | 52.7%
13 | CNC[C@@H](O)[C@H](c1ccccc1)N1CCc2cc(Cl)ccc21 [Example 87, (1S,2R)-1-(5-chloro-2,3-dihydro-1H-indol-1-yl)-3-(methylamino)-1-phenylpropan-2-ol hydrochloride] | 99.7%
14 | CNC[C@@H](O)[C@H](c1ccccc1)n1ccc2ccc(C)cc21 [Example 90, (1S,2R)-3-(methylamino)-1-(6-methyl-1H-indol-1-yl)-1-phenylpropan-2-ol hydrochloride] | 73.1%
15 | CNC[C@@H](O)[C@H](c1ccccc1)n1ccc2cccc(C)c21 [Example 91, (1S,2R)-3-(methylamino)-1-(7-methyl-1H-indol-1-yl)-1-phenylpropan-2-ol hydrochloride] | 90.8%
16 | CNC[C@@H](O)[C@H](c1ccccc1)n1ccc2c(C)cccc21 [Example 94, (1S,2R)-3-(methylamino)-1-(4-methyl-1H-indol-1-yl)-1-phenylpropan-2-ol hydrochloride] | 94.9%
17 | CNC[C@@H](O)[C@H](c1ccccc1)n1ccc2cc(C)ccc21 [Example 95, (1S,2R)-3-(methylamino)-1-(5-methyl-1H-indol-1-yl)-1-phenylpropan-2-ol hydrochloride] | 97.6%
18 | CNC[C@@H](O)[C@H](c1cccc(F)c1)n1cc(-c2ccccc2)c2ccccc21 [Example 98, ((1S,2R)-1-(3-fluorophenyl)-3-(methylamino)-1-(3-phenyl-1H-indol-1-yl)propan-2-ol hydrochloride] | 99.1%
19 | CNC[C@@H](O)[C@H](c1ccccc1)N1C(=O)C(C)(C)c2cccc(F)c21 [Example 99, 7-fluoro-1-[(1S,2R)-2-hydroxy-3-(methylamino)-1-phenylpropyl]-3,3-dimethyl-1,3-dihydro-2H-indol-2-one hydrochloride] | 98.1%
20 | CNC[C@@H](O)[C@H](c1ccccc1)N1C(=O)C(C)(C)c2ccccc21 [Example 100, 1-[(1S,2R)-2-hydroxy-3-(methylamino)-1-phenylpropyl]-3,3-dimethyl-1,3-dihydro-2H-indol-2-one hydrochloride] | 94.2%
21 | CNC[C@@H](O)[C@H](c1cccc(F)c1)N1C(=O)C(C)(C)c2cccc(F)c21 [Example 101, 7-fluoro-1-[(1S,2R)-1-(3-fluorophenyl)-2-hydroxy-3-(methylamino)propyl]-3,3-dimethyl-1,3-dihydro-2H-indol-2-one hydrochloride] | 98.6%
22 | CNC[C@@H](O)[C@@H](c1cccs1)n1ccc2ccccc21 [Example 102, (1S,2R)-1-(1H-indol-1-yl)-3-(methylamino)-1-(2-thienyl)propan-2-ol hydrochloride] | 95.3%
23 | CNC[C@@H](O)[C@H](c1cccs1)n1ccc2ccccc21 [Example 103, (1R,2R)-1-(1H-indol-1-yl)-3-(methylamino)-1-(2-thienyl)propan-2-ol hydrochloride] | 86.1%
24 | CNC[C@@H](O)[C@H](c1ccccc1)N1C(=O)C2(CCCCC2)c2ccccc21 [Example 104, 1′-[(1S,2R)-2-hydroxy-3-(methylamino)-1-phenylpropyl]spiro[cyclo-hexane-1,3′-indol]-2′(1′H)-one hydrochloride] | 99.4%
25 | O[C@@H]([C@@H]1CCCN1)[C@@H](c1cccc(F)c1)n1ccc2ccccc21 [Example 105, (1S,2R)-2-(3-fluorophenyl)-2-(1H-indol-1-yl)-1-[(2S)-pyrrolidin-2-yl]ethanol hydrochloride] | 92.6%
26 | O[C@H]([C@@H]1CCCN1)[C@H](c1cccc(F)c1)n1ccc2ccccc21 [Example 106, (1R,2S)-2-(3-fluorophenyl)-2-(1H-indol-1-yl)-1-[(2S)-pyrrolidin-2-yl]ethanol hydrochloride] | 85.8%
27 | CNC[C@@H](O)[C@H](c1ccccc1)N1C(=O)C2(CCC2)c2ccccc21 [Example 107, 1′-[(1S,2R)-2-hydroxy-3-(methylamino)-1-phenylpropyl]spiro[cyclo-butane-1,3′-indol]-2′(1′H)-one hydrochloride] | 96.6%
28 | CNC[C@@H](O)[C@H](c1ccccc1)N1C(=O)C2(CCCC2)c2ccccc21 [Example 108, 1′-[(1S,2R)-2-hydroxy-3-(methylamino)-1-phenylpropyl]spiro-[cyclopentane-1,3′-indol]-2′(1′H)-one hydrochloride] | 98.7%
29 | CNC[C@@H](O)[C@H](c1ccccc1)N1C(=O)C2(CC2)c2ccccc21 [Example 109, 1′-[(1S,2R)-2-hydroxy-3-(methylamino)-1-phenylpropyl]spiro-[cyclopropane-1,3′-indol]-2′(1′H)-one hydrochloride] | 94.7%
30 | CNC[C@@H](O)[C@H](c1ccccc1)N1C(=O)C(C)(C)c2cc(F)ccc21 [Example 110, 5-fluoro-1-[(1S,2R)-2-hydroxy-3-(methylamino)-1-phenylpropyl]-3,3-dimethyl-1,3-dihydro-2H-indol-2-one hydrochloride] | 86.4%
31 | CNC[C@@H](O)[C@H](c1ccccc1)N1C(=O)C2(CCCCC2)c2cccc(F)c21 [Example 112, 7′-fluoro-1′-[(1S,2R)-2-hydroxy-3-(methylamino)-1-phenylpropyl]-spiro[cyclohexane-1,3′-indol]-2′(1′H)-one hydrochloride] | 100%
